The subject of test [1] is contractile response of isolated guinea pig ileum to angiotensin I. As to the kind of experiment: Inhibition of contractile response of isolated guinea pig ileum to angiotensin I. The class given is cell-based. The following applies: Cavia porcellus, angiotensin I 0.1 μg/ml; compound added 5 min before; 30° C.; read-out: Angiotensin I IC50 (50% inhibition of angiotensin I activity inducing the contraction of guinea pig ileum). An excerpt: As the method of measurement of angiotensin I-converting enzyme activity, bioassay for the contractile response of isolated smooth muscle or the pressor response of normal animals and biochemical assay for the enzyme isolated from lung or other organs of animals are known. The former is found more advantageous than the latter for the examination of the convertion of angiotensin I to angiotensin II in vivo.
In the present study, therefore, we adopted the bioassay for contractile response of isolated guinea pig ileum to angiotensin I.
(§1) Measurement of inhibitory activity of angiotensin I-converting enzyme
(§2) Isolated guinea pig ileum was suspended in the organ bath containing 20 ml of Tyrode's solution of 30° C. gassed with 95% O2 +5% CO2. The contraction induced by the addition of angiotensin I (0.1 μg/ml) at intervals of 10 minutes was recorded on a recticorder (Nihon Koden) for 90 seconds using FD pick up (ST-1T-H, Nihon Koden).
(§3) The test compounds were added to the bath 5 minutes before the addition of angiotensin I.
The inhibitory activity of angiotensin I-converting enzyme was calculated by the following formula. [formula] A: contractile intensity of angiotensin I before addition of the compound B: contractile intensity of angiotensin I after addition of the compound

Test [2] concerns contractile response to bradykinin (isolated guinea pig ileum). As to the kind of experiment: Augmentation of contractile response of isolated guinea pig ileum to bradykinin. The class given is cell-based. The settings on record: Cavia porcellus, bradykinin 0.005 μg/ml; compound added 5 min before; 30° C.; read-out: Bradykinin AC50 (50% augmentation of bradykinin activity inducing the contraction of guinea pig ileum). On the procedure:
as §2, §3
From the fact that kininase II, which destroys bradykinin having contractive action on isolated guinea pig ileum, is thought to be identical with angiotensin I-converting enzyme, augmentation of the contractile response to bradykinin by test compounds was examined by using bradykinin (0.005 μg/ml) in place of angiotensin I according to the above mentioned method.

In test [3] the target is T1, angiotensin I-converting enzyme (Oryctolagus cuniculus, UniProt P12822).
T1 construct: angiotensin I-converting enzyme extracted from rabbit lung; from tissue; host or cells: rabbit lung
T1 sequence (P12822 34-1310): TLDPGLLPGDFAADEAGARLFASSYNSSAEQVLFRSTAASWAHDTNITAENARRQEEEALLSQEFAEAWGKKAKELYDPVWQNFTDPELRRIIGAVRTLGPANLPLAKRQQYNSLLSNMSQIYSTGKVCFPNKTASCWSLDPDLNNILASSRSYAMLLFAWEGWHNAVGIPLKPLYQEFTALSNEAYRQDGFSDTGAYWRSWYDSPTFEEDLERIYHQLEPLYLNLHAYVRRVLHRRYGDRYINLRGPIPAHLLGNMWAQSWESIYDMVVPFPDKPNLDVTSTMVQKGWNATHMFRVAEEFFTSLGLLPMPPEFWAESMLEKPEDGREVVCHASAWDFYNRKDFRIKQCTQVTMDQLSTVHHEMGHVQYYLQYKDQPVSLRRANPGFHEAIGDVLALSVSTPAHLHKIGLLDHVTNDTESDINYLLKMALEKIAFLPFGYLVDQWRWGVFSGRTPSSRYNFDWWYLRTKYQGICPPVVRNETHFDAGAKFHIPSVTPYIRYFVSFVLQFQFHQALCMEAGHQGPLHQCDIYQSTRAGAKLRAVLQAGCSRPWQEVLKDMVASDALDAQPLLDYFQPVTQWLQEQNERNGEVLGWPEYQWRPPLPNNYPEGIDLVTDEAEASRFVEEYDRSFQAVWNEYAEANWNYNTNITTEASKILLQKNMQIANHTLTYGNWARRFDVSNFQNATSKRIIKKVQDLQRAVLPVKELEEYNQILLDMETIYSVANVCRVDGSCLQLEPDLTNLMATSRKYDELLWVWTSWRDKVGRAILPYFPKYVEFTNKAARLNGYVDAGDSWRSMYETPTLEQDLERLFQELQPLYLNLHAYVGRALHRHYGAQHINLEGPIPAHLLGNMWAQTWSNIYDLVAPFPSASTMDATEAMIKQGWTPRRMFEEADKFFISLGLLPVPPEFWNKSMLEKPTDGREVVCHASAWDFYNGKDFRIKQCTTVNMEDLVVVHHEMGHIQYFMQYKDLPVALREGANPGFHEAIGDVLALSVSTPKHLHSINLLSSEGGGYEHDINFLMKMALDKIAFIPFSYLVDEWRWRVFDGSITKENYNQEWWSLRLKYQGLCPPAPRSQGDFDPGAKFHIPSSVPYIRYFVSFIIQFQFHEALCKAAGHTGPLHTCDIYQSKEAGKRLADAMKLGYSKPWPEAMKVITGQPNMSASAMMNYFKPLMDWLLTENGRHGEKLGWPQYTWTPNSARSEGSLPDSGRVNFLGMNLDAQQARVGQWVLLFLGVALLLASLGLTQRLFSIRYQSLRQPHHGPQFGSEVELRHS
As to the kind of experiment: Inhibition of angiotensin I-converting enzyme by spectrophotometry (HHL substrate). The class given is biochemical. The following applies: enzyme from rabbit lung; 5 mM HHL; pH 8.3; 37° C., 30 min. On the procedure:
That is, the absorbance of hippuric acid was measured, which is liberated by incubating hippuryl-L-histidyl-L-leucine (HHL) as substrate in the presence of angiotensin I-converting enzyme extracted from rabbit lung.
as §1
The reaction mixture is as follows:
100 mM phosphate buffer (pH 8.3)
10^-3 ~10^-9 M enzyme inhibitor
0.25 ml of the above mixture was incubated at 37° C. for 30 minutes and the reaction was stopped by adding 0.25 ml of 1 N hydrochloric acid. To this solution, 1.5 ml of ethyl acetate was added in order to extract hippuric acid. 1.0 ml of ethyl acetate layer was collected and evaporated to dryness, and the residue obtained was dissolved in 1.0 ml of water.
The inhibitory activity of angiotensin I-converting enzyme was calculated by the following formula: [formula]

Structures are written as SMILES.

Usually IC50 stands for the concentration that inhibits the measured activity by half. As usually defined, the AC50 is the concentration giving half of the maximal activity seen. On to `CC(C)=CCCC(C)CC1SC[C@@H](C(=O)O)N1C(=O)[C@H](C)CS` (stereo partly drawn) [Compound 2], for which the half-maximal inhibitory concentration (IC50) in test [1] was 480 nM; in test [3] it was 3200 nM. In addition, in test [2], the concentration at half-maximal activity (AC50) turned out to be 19 nM.
Consider `O=C(O)[C@@H]1CSC(c2ccccc2)N1C(=O)CS` (stereo partly drawn) [Compound 12], for which the half-maximal inhibitory concentration (IC50) in test [1] was determined as 900 nM; in test [3], 13000 nM. In test [2], the AC50 was 19 nM.
As to `O=C(O)[C@@H]1CSC(c2ccccc2)N1C(=O)CCS` (stereo partly drawn) [Compound 16], the IC50 in test [1] is 240 nM; in test [3], 450 nM. Further, in test [2], the AC50 is 2.6 nM.
As for `Cc1ccc(C2SC[C@@H](C(=O)O)N2C(=O)[C@H](C)CS)cc1` (stereo partly drawn) [Compound 22], the IC50 in test [1] came to 170 nM; in test [3] it was 540 nM. The concentration at half-maximal activity (AC50) in test [2] was 3.9 nM.
As for `O=C(O)[C@@H]1CSC(c2ccccc2Cl)N1C(=O)CCS` (stereo partly drawn) [Compound 24], the IC50 in test [1] is 700 nM; in test [3], 3600 nM. Also, the AC50 in test [2] is 16 nM.
As for `C[C@H](CS)C(=O)N1C(c2cccc([N+](=O)[O-])c2)SC[C@H]1C(=O)O` (stereo partly drawn) [Compound 34], the results for the IC50 in test [1] and in test [3] were 180 nM and 400 nM, respectively. For the same compound, in test [2], the AC50 stood at 2.5 nM.
Take `O=C(O)[C@@H]1CSC(c2ccccc2O)N1C(=O)CS` (stereo partly drawn) [Compound 44]: the results for the IC50 in test [1] and in test [3] were 560 nM and 2200 nM, respectively. The half-maximal activity concentration (AC50) in test [2] came out at 5 nM.
Take `O=C(O)[C@@H]1CSC(c2cccc(O)c2)N1C(=O)CCS` (stereo partly drawn) [Compound 52]: the values for the IC50 in test [1] and in test [3] were 71 nM and 210 nM, respectively. Moreover, the AC50 in test [2] stood at 1.5 nM.
The matching figures for `C[C@H](CS)C(=O)N1C(c2cccc(O)c2)SC[C@H]1C(=O)O` (stereo partly drawn) [Compound 54]: 150 nM, 230 nM and 1.7 nM.
For the compound `O=C(O)[C@@H]1CSC(c2ccc(O)cc2)N1C(=O)CCS` (stereo partly drawn) [Compound 56], the values for the IC50 in test [1] and in test [3] were 460 nM and 1200 nM, respectively. Moreover, the AC50 in test [2] worked out at 5.5 nM.
With `O=C(O)[C@@H]1CSC(c2ccc(O)c(O)c2)N1C(=O)CCS` (stereo partly drawn) [Compound 58], the figures for the IC50 in test [1] and in test [3] were 520 nM and 2600 nM, respectively. The AC50 in test [2] was 5.8 nM.
For `C[C@H](CS)C(=O)N1C(c2cc(Cl)ccc2O)SC[C@H]1C(=O)O` (stereo partly drawn) [Compound 60] the same measures were 92 nM, 75 nM and 2 nM.
In the case of `COc1ccccc1C1SC[C@@H](C(=O)O)N1C(=O)[C@H](C)CS` (stereo partly drawn) [Compound 64], the IC50 in test [1] was determined as 500 nM; in test [3], 420 nM. Moreover, the half-maximal activity concentration (AC50) in test [2] stood at 8 nM.
Regarding `COc1ccc(C2SC[C@@H](C(=O)O)N2C(=O)[C@H](C)CS)cc1` (stereo partly drawn) [Compound 68], the values for the IC50 in test [1] and in test [3] were 88 nM and 750 nM, respectively. Besides, the AC50 in test [2] was found to be 2.1 nM.
In the case of `COc1cc(C2SC[C@@H](C(=O)O)N2C(=O)[C@H](C)CS)cc(OC)c1OC` (stereo partly drawn) [Compound 71], the concentration for half-maximal inhibition (IC50) in test [1] amounted to 410 nM; in test [3], 390 nM. Besides, the AC50 in test [2] is 9.4 nM.
For the compound `COc1cccc(C2SC[C@@H](C(=O)O)N2C(=O)CCS)c1O` (stereo partly drawn) [Compound 73], the IC50 in test [1] worked out at 36 nM; in test [3], 93 nM. The AC50 in test [2] amounted to 1.1 nM.
As to `COc1ccc(C2SC[C@@H](C(=O)O)N2C(=O)CCS)c(O)c1` (stereo partly drawn) [Compound 75], the results for the IC50 in test [1] and in test [3] were 140 nM and 200 nM, respectively. Also, in test [2], the AC50 worked out at 3.1 nM.
The matching figures for `COc1cc(C2SC[C@@H](C(=O)O)N2C(=O)[C@H](C)CS)ccc1O` (stereo partly drawn) [Compound 79]: 210 nM, 1300 nM and 3.2 nM.
Regarding `C[C@H](CS)C(=O)N1C(c2ccc3c(c2)OCO3)SC[C@H]1C(=O)O` (stereo partly drawn) [Compound 81], the IC50 in test [1] is 140 nM; in test [3] it was 240 nM. Also, the concentration at half-maximal activity (AC50) in test [2] was 0.94 nM.
Consider `C[C@H](CS)C(=O)N1C(c2cccc3ccccc23)SC[C@H]1C(=O)O` (stereo partly drawn) [Compound 83], for which the results for the IC50 in test [1] and in test [3] were 360 nM and 1300 nM, respectively. The concentration at half-maximal activity (AC50) in test [2] came to 13 nM.
For `C[C@H](CS)C(=O)N1C(c2ccco2)SC[C@H]1C(=O)O` (stereo partly drawn) [Compound 85], the IC50 in test [1] stood at 240 nM; in test [3] it was 340 nM. In addition, in test [2], the AC50 was found to be 3.7 nM.
The matching figures for `Cc1ccc(C2SC[C@@H](C(=O)O)N2C(=O)[C@H](C)CS)o1` (stereo partly drawn) [Compound 87]: 460 nM, 730 nM and 2.6 nM.
Regarding `C[C@H](CS)C(=O)N1C(c2cccs2)SC[C@H]1C(=O)O` (stereo partly drawn) [Compound 91], the IC50 in test [1] was 700 nM; in test [3], 370 nM. Also, in test [2], the half-maximal activity concentration (AC50) was 10 nM.
For the compound `C[C@H](CS)C(=O)N1C(c2cccnc2)SC[C@H]1C(=O)O` (stereo partly drawn) [Compound 93], the figures for the 50% inhibitory concentration (IC50) in test [1] and in test [3] were 140 nM and 840 nM, respectively. Moreover, the AC50 in test [2] came out at 2.9 nM.
In the case of `C[C@H](CS)C(=O)N1C(c2ccncc2)SC[C@H]1C(=O)O` (stereo partly drawn) [Compound 95], the IC50 amounted to 83 nM in test [1] and 110 nM in test [3]. Also, the concentration at half-maximal activity (AC50) in test [2] is 3.1 nM.
The matching figures for `C[C@H](CS)C(=O)N1CSC[C@H]1C(=O)O` [Compound 96, reference compound]: 170 nM, 260 nM and 2.6 nM.

The values are drawn from patent US4356183A, “Antihypertensive 4-thiazolidinecarboxylic acids (pyridyl derivatives)” (Santen Pharmaceutical Co., Ltd., priority 1978, dated 1982).
